In patent US6124293A, “Semi-synthetic ecteinascidins” (The Board of Trustees of the University of Illinois, priority 1999, dated 2000):

What was measured:
[1] = system: P388 murine leukemia, B16 melanoma, Lewis lung carcinoma, and several human tumor xenograft models; settings: activity against P388, B16, Lewis lung, human tumor xenografts in mice; cited from earlier work
L1210 murine leukemia = test: in vitro cytotoxicity to L1210 murine leukemia; assay type: cell-based; settings: potency relative to Et 743
Text: In view of the exceptional antitumor properties of the natural ecteinascidins, the present invention has studied the antitumor activities of the semi-synthetic analogs prepared herein.

B16 melanoma = settings: recent experiments, NCI evaluation; cited from earlier work

COc1cc2c(cc1O)CCN[C@]21CSC2c3c(OC(C)=O)c(C)c4c(c3C(COC1=O)N1C2C2c3c(cc(C)c(OC)c3O)CC([C@@H]1O)N2C)OCO4 (stereo partly drawn) [Et 743]
efficacy in vivo [1]: promising efficacy in vivo

COc1cc2c(cc1O)CCN[C@]21CSC2c3c(OC(C)=O)c(C)c4c(c3C(COC1=O)N1C2C2NC(Cc3cc(C)c(OC)c(O)c32)[C@@H]1O)OCO4 (stereo partly drawn) [Et 729]
IC50 (Et 743)/IC50 (L1210 murine leukemia): 10 | survivors 60 days following infection with B16 melanoma (B16 melanoma): 8 of 10 | efficacy in vivo [1]: promising efficacy in vivo

COc1cc2c(cc1O)CCN(C)[C@]21CSC2c3c(OC(C)=O)c(C)c4c(c3C(COC1=O)N1C2C2NC(Cc3cc(C)c(OC)c(O)c32)[C@@H]1O)OCO4 (stereo partly drawn) [Iso-Et 743]
IC50 (Et 743)/IC50 (L1210 murine leukemia): 17

COc1cc2c(cc1O)CCN(C)[C@]21CSC2c3c(OC(C)=O)c(C)c4c(c3C(COC1=O)N1C2C2c3c(cc(C)c(OC)c3O)CC([C@@H]1O)N2C)OCO4 (stereo partly drawn) [Et 757]
IC50 (Et 743)/IC50 (L1210 murine leukemia): 50

COC(=O)C(C(=O)OC)[C@H]1C2Cc3cc(C)c(OC)c(O)c3C(C3C4SC[C@]5(NCCc6cc(O)c(OC)cc65)C(=O)OCC(c5c6c(c(C)c(OC(C)=O)c54)OCO6)N31)N2C (stereo partly drawn) [Et 875]
IC50 (Et 743)/IC50 (L1210 murine leukemia): 1

COc1c(C)cc2c(c1O)[C@H]1N[C@@H](C2)[C@H](O)N2[C@H]1[C@@H]1SC[C@]3(NCCc4c3[nH]c3ccccc43)C(=O)OC[C@H]2c2c3c(c(C)c(OC(C)=O)c21)OCO3 [Et 722]
efficacy in vivo [1]: promising efficacy in vivo

COc1cc2c(cc1O)CCNC21CSC2c3c(OC(C)=O)c(C)c4c(c3C(COC1=O)N1C(O)C3Cc5cc(C)c(OC)c(O)c5C(C21)N3Cc1ccc(CN2C3Cc5cc(C)c(OC)c(O)c5C2C2C5SCC6(NCCc7cc(O)c(OC)cc76)C(=O)OCC(c6c7c(c(C)c(OC(C)=O)c65)OCO7)N2C3O)cc1)OCO4 (stereo not drawn) [Et 1560]
IC50 (Et 743)/IC50 (L1210 murine leukemia): 0.25
